# Assay results published in ChEMBL document CHEMBL1201862, “PubChem BioAssay data set” (2004).
# Calls of active or inactive are those of the source. Rule as the data show it, for most assays here: actives have a measured EC50 and inactives only a lower limit.
# Assays:
# [1] = Luminescence Cell-Based Dose Response HTS to Identify Activators of Luciferase Translation or Activity in H4 […] Cells. [Related pubchem assays: 1829 (Project Summary), 1814 (Primary HTS)]; format: functional
# [2] = Luminescence Cell-Based Dose Confirmation HTS to Identify Activators of 5'UTR Stem-Loop Driven Alpha-Synuclein mRNA Translation in H4 Neuroglioblastoma Cells. [Related pubchem assays: 1829 (Project Summary), 1814 (Primary HTS)]; format: functional
# [3] = target: T1, Polyadenylate-binding protein 1 (Homo sapiens, UniProt P11940); test: PABP1 MLLE–PAM2 interaction inhibitors, dose response, miRNA deadenylation inhibitor project, biochemical, fluorescence polarization, Cy5-PAM2 peptide, secondary (AID 602260); format: functional; settings: read-out: IC50_Mean
# H4 = test: Luminescence Cell-Based Dose Response HTS to Identify Activators of 5'UTR Stem-Loop Driven Prion Protein mRNA Translation in H4 Neuroglioblastoma Cells. [Related pubchem assays: 1829 (Project Summary), 1814 (Primary HTS)]; format: functional; settings: Homo sapiens
# [4] = target: T1, Polyadenylate-binding protein 1; test: PABP1 MLLE–PAM2 binding inhibitor potency, dose response, biochemical, fluorescence polarization, FITC-PAM2 peptide (AID 602259); format: functional; settings: read-out: IC50_Mean
# BJ [5] = test: cytotoxicity toward BJ-TERT fibroblasts, dose response, cell-based, RAS-independent, luminescence (AID 1933); format: functional; settings: Homo sapiens
# [6] = cytotoxicity toward DRD oncogenic fibroblasts, dose response, cell-based, non-viral oncogenic, luminescence (AID 1934); format: functional; settings: Homo sapiens
# BJ [7] = test: cytotoxicity toward BJ-TERT-LT-ST fibroblasts, dose response, cell-based, RAS-independent, luminescence (AID 1935); format: functional; settings: Homo sapiens;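 also: BJ fibroblasts immortalized with TERT plus LT and ST oncogenes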
# BJ [8] = test: cells; format: functional, cell-based; settings: Homo sapiens
# Coagulation factor XII = target: T2, Coagulation factor XII (Homo sapiens, UniProt P00748); format: functional;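 also: activated factor XIIa alpha cleaving a fluorogenic AMC peptide substrate; inhibitor potency from loss of enzyme activity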
# T2 sequence (P00748 whole entry): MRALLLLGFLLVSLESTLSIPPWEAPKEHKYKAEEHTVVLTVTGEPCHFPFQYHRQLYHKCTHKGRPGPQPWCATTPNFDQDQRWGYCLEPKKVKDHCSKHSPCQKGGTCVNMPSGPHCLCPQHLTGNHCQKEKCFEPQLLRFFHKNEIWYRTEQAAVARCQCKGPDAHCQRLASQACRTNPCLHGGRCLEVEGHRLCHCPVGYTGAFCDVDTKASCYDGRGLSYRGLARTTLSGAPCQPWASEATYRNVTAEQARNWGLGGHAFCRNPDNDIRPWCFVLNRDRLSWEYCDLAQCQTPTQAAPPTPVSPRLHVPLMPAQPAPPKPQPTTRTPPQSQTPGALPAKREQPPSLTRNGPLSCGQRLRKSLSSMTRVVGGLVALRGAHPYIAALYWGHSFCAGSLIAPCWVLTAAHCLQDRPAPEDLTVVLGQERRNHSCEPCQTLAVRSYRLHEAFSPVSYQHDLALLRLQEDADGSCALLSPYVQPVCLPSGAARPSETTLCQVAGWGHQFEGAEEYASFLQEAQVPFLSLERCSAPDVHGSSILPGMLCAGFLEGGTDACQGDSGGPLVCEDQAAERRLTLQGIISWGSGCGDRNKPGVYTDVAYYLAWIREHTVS
# [9] = inhibitors of intracellular T. cruzi replication, confirmation, NIH3T3 host cells, beta-gal luminescence (AID 2044); format: functional, cell-based;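 also: intracellular parasites grown in NIH/3T3 mouse fibroblasts as host cells; luminescent beta-galactosidase reporter signal from transgenic T. cruzi replicating inside host cells; inhibitors lower the luminescence signal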
# [10] = cytotoxicity toward NIH3T3 fibroblasts, dose response, counter-screen, cell-based, ATP luminescence, mouse fibroblasts (AID 2010); format: functional;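 also: cells exposed to compound for about 90 hours before reading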
# [11] = Luminescence Cell-Based Dose Response HTS to Identify Inhibitors of 5'UTR Stem-Loop Driven Prion Protein mRNA Translation in H4 Neuroglioblastoma Cells. [Related pubchem assays: 1827 (Project Summary), 1813 (Primary HTS)]; format: functional
# [12] = inhibitors of SNCA 5'UTR-driven reporter translation, confirmation, H4 neuroglioma cells, luminescence (AID 1988); format: functional, cell-based
# [13] = inhibitors of firefly luciferase expression or activity, dose response, H4 neuroglioma cells, luminescence (AID 1990); format: functional, cell-based
# [14] = LGR2 antagonists, dose response, cell-based, HEK293, CRE-luciferase reporter, cherry pick, set 2 (AID 743343); format: functional;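 also: transfected cells were stimulated with diluted bursicon conditioned medium after compound addition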
# [15] = MC4R antagonists, dose response, counter-screen for LGR2 antagonist project, cell-based, plate reader, cherry pick (AID 743444); format: functional;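 also: transfected HEK 293 cells stimulated with alpha-MSH peptide; potency of inhibitors of the alpha-MSH evoked signal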
# [16] = HepG2 cell cytotoxicity, dose response, cytotoxicity control, plate reader, cherry-pick, antagonist series (AID 743416); format: functional, cell-based
# [17] = A549 cell cytotoxicity, dose response, cytotoxicity control, plate reader, cherry-pick, antagonist series (AID 743412); format: functional, cell-based
# [18] = HEK293 cell cytotoxicity, dose response, cytotoxicity control, plate reader, cherry-picked samples (AID 743446); format: functional, cell-based
# H9c2 = test: cells; format: functional, cell-based; settings: Rattus norvegicus, H9c2, Myocardium;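 also: confirmatory concentration-response retest of ultra-high-throughput screening hits for modulation of myocardial damage; cell death induced by hydrogen peroxide oxidative stress; compound pretreatment for 60 min then peroxide exposure for 2 h; potency is for protecting the cells against peroxide damage rather than for killing them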
# [19] = P. falciparum Dd2 growth inhibitors, dose response, SYBR Green, cherry-picked samples (AID 1159567); format: functional, cell-based
# T1 sequence (P11940 whole entry): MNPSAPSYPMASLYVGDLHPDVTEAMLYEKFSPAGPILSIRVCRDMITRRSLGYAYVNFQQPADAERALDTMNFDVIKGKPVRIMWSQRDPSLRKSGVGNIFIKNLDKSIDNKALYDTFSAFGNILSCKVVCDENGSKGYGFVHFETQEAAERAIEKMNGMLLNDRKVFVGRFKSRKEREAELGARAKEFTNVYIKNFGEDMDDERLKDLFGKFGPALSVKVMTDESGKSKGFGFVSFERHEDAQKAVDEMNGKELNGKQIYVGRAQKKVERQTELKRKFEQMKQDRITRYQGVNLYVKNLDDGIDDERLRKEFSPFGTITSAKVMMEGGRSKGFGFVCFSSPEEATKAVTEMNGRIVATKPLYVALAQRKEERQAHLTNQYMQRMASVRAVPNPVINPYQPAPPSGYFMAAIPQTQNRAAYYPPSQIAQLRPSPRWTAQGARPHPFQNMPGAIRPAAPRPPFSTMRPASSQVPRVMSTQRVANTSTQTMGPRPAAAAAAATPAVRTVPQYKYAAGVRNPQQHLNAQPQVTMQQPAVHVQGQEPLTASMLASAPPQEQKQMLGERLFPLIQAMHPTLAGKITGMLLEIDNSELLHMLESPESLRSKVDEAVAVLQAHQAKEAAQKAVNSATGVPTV
structure (smiles),measurement,setting,value
O=C(CC(SCCO)c1ccc2c(c1)OCO2)c1cccs1 (configuration not stated),EC50,[1],119 µM (active)
same,EC50,[2],3.91 µM (active)
same,IC50,[3],> 66 µM (inactive)
same,EC50,H4,9.36 µM (active)
same,IC50,[4],> 66 µM (inactive)
Cc1cccc(N2C(=O)NC(=O)/C(=C\c3c(-c4ccccc4)[nH]c4ccccc34)C2=O)c1,EC50,[1],0.511 µM (active)
same,EC50,BJ [5],3.69 µM (active)
same,EC50,[2],> 120 µM (not active)
same,EC50,[6],3.33 µM (active)
same,EC50,BJ [7],11.5 µM (inconclusive)
same,EC50,BJ [8],58.6 µM (active)
same,EC50,H4,> 120 µM (not active)
Cc1ccc(C(CC(=O)NCCCN(C)C)c2ccc(OC(C)C)cc2)cc1 (configuration not stated),IC50,Coagulation factor XII,> 50 µM (inactive)
O=C(Cc1ccccc1[N+](=O)[O-])Nc1ccccc1C(=O)N1CCCC1,IC50,Coagulation factor XII,> 50 µM (inactive)
O=[N+]([O-])c1nn(-c2ccccc2)[n+]([O-])c1NC1CCN(Cc2ccccc2)CC1,EC50,[9],0.25 µM (active)
same,EC50,[10],> 60 µM (not active)
same,EC50,[11],> 120 µM (not active)
same,EC50,[12],10.9 µM (active)
same,EC50,[13],14 µM (active)
Cc1ccc(C(=O)Nc2ccc3c(c2)OCCO3)c(C)c1,AC50,[14],2.74 µM (active)
same,AC50,[15],2.42 µM (active)
same,AC50,[16],> 52 µM (inactive)
same,AC50,[17],44.6 µM (active)
same,AC50,[18],> 52 µM (inactive)
CCn1c(O)cc(=O)nc1SCC(=O)N1CCCCC1,IC50,Coagulation factor XII,> 50 µM (inactive)
[O-][n+]1c2c([n+]([O-])c3c1CCCC3)CCCC2,EC50,[11],> 120 µM (not active)
same,EC50,[12],> 120 µM (not active)
same,EC50,[13],> 120 µM (not active)
Cn1c(=O)[nH]c(=O)c2c1nc(N(CCO)Cc1ccccc1)n2CCCc1ccccc1,IC50,H9c2,13.8 µM (active)
COc1cc(OC)cc(C(=O)NCC(=O)Nc2ccc(-c3ccccc3)cc2)c1,EC50,[1],55.6 µM (active)
same,EC50,[2],> 60 µM (not active)
same,EC50,H4,9.12 µM (active)
COc1ccccc1NC(=O)N1CC[C@H]2[C@@H]1c1cc(C#Cc3ccc(F)cc3)ccc1N(C)[C@H]2CO,AC50,[19],4.14 µM (active)
CCOc1ccccc1/C=C(/NC(=O)c1ccccc1)C(=O)N(CC)CC,EC50,[11],> 120 µM (not active)
same,EC50,[12],> 120 µM (not active)
same,EC50,[13],> 120 µM (not active)
Cc1sc2nc(CSCC(=O)N(C)CC(=O)Nc3ccc(F)cc3)nc(O)c2c1C,IC50,H9c2,7.7 µM (active)
